According to US11272841B2, “Indicator fluids, systems, and methods for assessing movement of substances within, to or from a cerebrospinal fluid, brain or spinal cord compartment of a cranio-spinal cavity of a human” (BRAINWIDESOLUTIONS AS, priority 2017, dated 2022):

Experiment: Gadobutrol concentration in blood at time points after gadobutrol was present in CSF (FIG. 1e-h)
Type: in vivo, human
Excerpt: In test studies, the inventors measured concentrations of the indicator fluid gadobutrol in blood at different time points after indicator fluid was present in CSF. […] In FIG. 1e-h are provided examples of measurements of gadobutrol (indicator fluid) concentrations in blood. On the y-axis is shown the indicator fluid concentration level 119 in blood (i.e. concentration of gadobutrol measured in units mg/kg), and on x-axis the time 120 elapsed from gadobutrol was present within the CSF. The concentration level of gadobutrol was measured after different time points 120, including after 1-2 hours, 3-4 hours, 5-6 hours, 7-8 hours, 23-26 hours, and 46-49 hours, for different individuals.
With reference to FIG. 1e, trend plots of average values of gadobutrol concentrations in blood (mg/kg) are shown for individuals with intracranial hypotension 121 (symbol ♦; n=4), idiopathic intracranial hypertension 122 (symbol ●; n=1), idiopathic normal pressure hydrocephalus 123 (symbol ▴; n=1), cerebral cyst 124 (symbol O; n=4), and arachnoid cyst 125 (symbol ▪; n=4). The letter n refers to number of individuals within each group. […] Half-time of gadobutrol in blood is about 1.8 hours. It should be noted that the amount and time course of appearance of gadobutrol in blood differs for the various groups of individuals, related to the fact that the ability to remove substances from the cranio-spinal compartment varies between individuals. […] The concentrations may be determined after 24 or 48 hours or after any time point within 72 hours after the indicator fluid is present in CSF.
In FIG. 1f-h, the inventors provide some examples of measurements of indicator fluid (the MRI contrast agent gadobutrol) concentration level in blood at different time points after indicator fluid being present in CSF in three separate individuals. It should be noted that the invention gives no limitation regarding the method by which the blood concentration is measured. […]

For O=C([O-])CN1CCN(CC(=O)[O-])CCN([C@H](CO)[C@H](O)CO)CCN(CC(=O)[O-])CC1.[Gd+3] (racemic) [gadobutrol], the “Time of maximum concentration in blood after gadobutrol present in CSF” value (“Time of maximum concentration in blood” below) (group trend plot: arachnoid cyst (n=4)) was 3 to 4 h, the “Time of maximum concentration in blood” value (group trend plot: cerebral cyst (n=4)) was 7 to 8 h and the “Time of maximum concentration in blood” value (group trend plots: intracranial hypotension (n=4), idiopathic intracranial hypertension (n=1), iNPH (n=1)) was 5 to 6 h.
